Results on one compound are retold here after US4863916A, “Substituted 6-hydroxymethyl-carbapenem antibiotics” (Bayer Aktiengesellschaft, priority 1986, dated 1989).

Test in all cases: Antibacterial action, minimum inhibitory concentration (MIC), agar method on Iso-sensitest agar
Holding throughout (type): cell-based

The test system of one assay is Staph. 24455. From the text:
(§1) The agar solution method was used for determining the antibacterial action, an Iso-sensitest agar being used and the minimum inhibitory concentration (MIC) of the sample being expressed in μg/ml of the nutrient medium (Table).

The next assay deals with Staph. 133.
Description: as §1

Another assay has as its system Staph. E 25185.
Description: as §1

With `COC(=O)[C@@H](O)[C@H]1C(=O)N2C(C(=O)O)=C(Sc3ccncc3)C[C@H]12` [Example 14, Sodium (5R,6S)-6-[(1S)-1-hydroxy-1-methoxycarbonyl]methyl-7-oxo-3-(4-pyridinylthio)-1-azabicyclo[3.2.0]hept-2encarboxylate], the MIC was 0.5 µg/mL with Staph. 24455, 0.5 µg/mL with Staph. 133 and 1 µg/mL against Staph. E 25185.
